Reference: US20190240225A1, “COMBINATION OF A BCL-2 INHIBITOR AND A MCL-1 INHIBITOR, USES AND PHARMACEUTICAL COMPOSITIONS THEREOF” (LES LABORATOIRES SERVIER, priority 2016, published 2019)
Read-outs that look alike come from different tables or passages of the source.

How the values were obtained:
[1] = test system: SU-DHL-8; experiment: CellTiterGlo viability, DLBCL cell line; format: cell-based; settings: single agent, 2 days; for IC50: read-out: Abs IC50
Method: (§5) In addition, all media contained penicillin (100 IU/ml), streptomycin (100 μg/ml) and L-glutamine (2 mM). Unless otherwise mentioned, culture media and supplements were from Amimed/Bioconcept (Allschwil, Switzerland).
(§6) Cell lines were cultured at 37° C. in a humidified atmosphere containing 5% CO2 and expanded in T-75 flasks. In all cases cells were thawed from frozen stocks, expanded through ≥1 passage using appropriate dilutions, counted and assessed for viability using a CASY cell counter (Omni Life Science, Bremen, Germany) prior to plating 25 ul/well at the densities indicated in Table 1 into 384-well plates (Corning). All cell lines were determined to be free of mycoplasma contamination by PCR assay performed at Idexx Radii (Columbia, Mo., USA) and misidentification ruled out by assessment of a panel of 48 Small Nucleotide Polymorphisms (SNPs) at Asuragen (Austin, Tex., USA) or in-house.
(§7) Stock solutions of compounds were prepared at a concentration of 10 mM in DMSO (Sigma) and stored at −20° C. Where necessary to afford a full dose-response curve, the stock solutions were pre-diluted in DMSO to 1′000-fold the desired start concentration (see Table 2). On the day after cell seeding, eight 2.5-fold serial dilutions of each compound were dispensed, either individually or in all possible permutations in a checkerboard fashion, directly into the cell assay plates using a non-contact 300D Digital Dispenser (ILCAN, Mannedorf, Switzerland) as outlined in FIG. 4. The final concentration of DMSO was 0.2% in all wells.
(§8) Effects of the single agents as well as their checkerboard combinations on cell viability were assessed after 2 days of incubation at 37° C./5% CO2 by quantification of cellular ATP levels using CellTiterGlo (Promega, Madison, Wis., USA) at 25 μL reagent/well and n=2 replicate plates per condition. Luminescence was quantified on a M1000 multipurpose platereader (ILCAN, Mannedorf, Switzerland). The number/viability of cells at time of compound addition was likewise assessed and used to assess the degree of the population doubling time of a particular cell line.
(§9) Single agent IC50s were calculated using standard four-parametric curve fitting. […] IC50 are defined as the compound concentration at which the CTG signal is reduced to 50% of that measured for the vehicle (DMSO) control.

[2] = test system: WSU-DLCL2; experiment: CellTiterGlo viability, DLBCL cell line; format: cell-based; settings: single agent, 2 days; for IC50: read-out: Abs IC50
Method: as §5, §6, §7, §8, §9

[3] = test system: NBL-S; experiment: CellTiterGlo viability, neuroblastoma cell line; format: cell-based; settings: single agent, 3 days
Method: In addition, all media contained penicillin (100 IU/ml), streptomycin (100 μg/ml) and L-glutamine (2 mM). […] In all cases cells were thawed from frozen stocks, expanded through ≥1 passage using appropriate dilutions, counted and assessed for viability using a CASY cell counter prior to plating 150 ul/well at the densities indicated in Table 6 into 96-well plates. All cell lines were determined to be free of mycoplasma contamination in-house. Stock solutions of compounds were prepared at a concentration of 5 mM in DMSO and stored at −20° C. In order to analyse the activity of the compounds as single agents, cells were seeded and treated with nine 3.16-fold serial dilutions of each compound dispensed individually directly into the cell assay plates. […] Two independent experiments, each one performed in duplicates were performed. […]. Luminescence was quantified on a multipurpose platereader. Single agent IC50s were calculated using standard four-parametric curve fitting. […] Identical experiments were performed to assess potential synergistic interactions between compound combinations. […] All calculations were performed using Chalice TM Bioinformatics Software.

[4] = test system: NALM-6; experiment: CellTiterGlo viability, B-ALL cell line; format: cell-based; settings: for IC50: NALM-6, B-ALL, single agent, 72 h; for growth inhibition: NALM-6 cells, fourth lowest concentration tested (FIG. 11, top left panel)
Method: In addition, all media contained penicillin (100 IU/ml), streptomycin (100 μg/ml) and L-glutamine (2 mM). […] All cell lines were determined to be free of mycoplasma contamination in-house. Stock solutions of compounds were prepared at a concentration of 5 mM in DMSO and stored at −20° C. In order to analyse the activity of the compounds as single agents, cells were seeded and treated with nine 2-fold serial dilutions of each compound dispensed individually directly into the cell assay plates. […] All the conditions were tested in triplicates. Luminescence was quantified on a multipurpose plate reader. Single agent IC50s were calculated using standard four-parametric curve fitting. […] In order to analyse the activity of the compounds in combination, cells were seeded and treated with seven or eight 3.16-fold serial dilutions of each compound dispensed, either individually or in all possible permutations in a checkerboard fashion, directly into the cell assay plates as indicated in FIG. 1. […] For B-ALL cell lines, two independent experiments, each one performed in duplicates, were performed. For T-ALL cell lines, one experiment performed in triplicate was performed. Luminescence was quantified on a multipurpose plate reader. […] All calculations were performed using Chalice TM Bioinformatics Software available in Horizon website.

[5] = test system: CCRF-CEM; experiment: CellTiterGlo viability, T-ALL cell line; format: cell-based; settings: single agent, 48 h
Method: (§1) In addition, all media contained penicillin (100 IU/ml), streptomycin (100 μg/ml) and L-glutamine (2 mM). Cell lines were cultured at 37° C. in a humidified atmosphere containing 5% CO2 and expanded in T-150 flasks. In all cases cells were thawed from frozen stocks, expanded through ≥1 passage using appropriate dilutions, counted and assessed for viability using a CASY cell counter prior to plating 150 ul/well at the densities indicated in Table 9 into 96-well plates. All cell lines were determined to be free of mycoplasma contamination in-house.
(§2) Stock solutions of compounds were prepared at a concentration of 5 mM in DMSO and stored at −20° C. In order to analyse the activity of the compounds as single agents, cells were seeded and treated with nine 2-fold serial dilutions of each compound dispensed individually directly into the cell assay plates. […] All the conditions were tested in triplicates. Luminescence was quantified on a multipurpose plate reader. Single agent IC50s were calculated using standard four-parametric curve fitting. IC50 is defined as the compound concentration at which the CTG signal is reduced to 50% of that measured for the vehicle (DMSO) control.
(§3) In order to analyse the activity of the compounds in combination, cells were seeded and treated with seven or eight 3.16-fold serial dilutions of each compound dispensed, either individually or in all possible permutations in a checkerboard fashion, directly into the cell assay plates as indicated in FIG. 1. […] For B-ALL cell lines, two independent experiments, each one performed in duplicates, were performed. For T-ALL cell lines, one experiment performed in triplicate was performed. Luminescence was quantified on a multipurpose plate reader.
(§4) Potential synergistic interactions between compound combinations were assessed using the Excess Inhibition 2D matrix according to the Loewe additivity model and are reported as Synergy Score (Lehar et al, Nat Biotechnol. 2009 July; 27(7): 659-666). All calculations were performed using Chalice TM Bioinformatics Software available in Horizon website. The doubling time indicated in Table 9 is the mean of the doubling time obtained in the different passages (in T-150 flasks) performed from the thawing of the cells to their seeding in the 96-well plates.

[6] = test system: J.RT3 T3.5; experiment: CellTiterGlo viability, T-ALL cell line; format: cell-based; settings: single agent, 48 h
Method: as §1, §2, §3, §4

[7] = test system: J45.01; experiment: CellTiterGlo viability, T-ALL cell line; format: cell-based; settings: single agent, 48 h
Method: as §1, §2, §3, §4

[8] = test system: Loucy; experiment: CellTiterGlo viability, T-ALL cell line; format: cell-based; settings: single agent, 48 h
Method: as §1, §2, §3, §4

[9] = Stability of dosing formulations; format: physicochemical; settings: 4° C; Compound 1, HCl in 5% Ethanol, 20% Dexolve-7 (iv) or PEG300/EtOH/water (40/10/50) (po); ABT-199 in PEG300/EtOH/water (40/10/50); Compound 3 in Liposomal formulation
Method: Compound 1, HCl was formulated in 5% Ethanol, 20% Dexolve-7 as a solution for intravenous administration or formulated in PEG300/EtOH/water (40/10/50) for oral administration. ABT-199 was formulated in PEG300/EtOH/water (40/10/50) for oral administration. […] Vehicle and compound dosing solutions were prepared as needed. All animals were dosed at 10 mL/kg with Compound 1 (expressed as the free base) or ABT-199, or 5 mL/kg with Compound 3.

Structure (SMILES) | IC50 ([1]; Homo sapiens, 48 h) | Max Inh [1] | IC50 ([2]; Homo sapiens, WSUDLCL2, 48 h) | Max Inh [2] | IC50 ([3]; Neuroblastoma cell, 72 h) | Max Inh (Compound 3: Mean of Max Inh) [3] | IC50 ([4]; Homo sapiens) | growth inhibition [4] | IC50 ([5]; Homo sapiens) | IC50 ([6]; Homo sapiens) | IC50 [7] | IC50 [8] | stability of dosing formulation [9] | IC50 [1] | IC50 [2] | IC50 [3] | IC50 [4] | IC50 [5] | IC50 [6]
Cl.O=C(c1cc(-c2cc3c(cc2C(=O)N2Cc4ccccc4C[C@H]2CN2CCOCC2)OCO3)n2c1CCCC2)N(c1ccccc1)c1ccc(O)cc1 [Compound 1, HCl, N-(4-hydroxyphenyl)-3-{6-[((3S)-3-(4-morpholinylmethyl)-3,4-dihydro-2(1H)-isoquinolinyl)carbonyl]-1,3-benzodioxol-5-yl}-N-phenyl-5,6,7,8-tetrahydro-1-indolizine carboxamide hydrochloride] | ≥ 10000 nM | 28.7% | 1020 nM | 99.3% | > 2000 nM | 10% | 3630 nM | 8% | 7500 nM | 10000 nM | 9000 nM | 231 nM | stable for at least one week at 4 °C |  |  |  |  |  | 
COc1ccccc1-c1nccc(COc2ccccc2C[C@@H](Oc2ncnc3sc(-c4ccc(F)cc4)c(-c4ccc(OCCN5CCN(C)CC5)c(Cl)c4C)c23)C(=O)O)n1 [Compound 3, (2R)-2-{[(5Sa)-5-{3-chloro-2-methyl-4-[2-(4-methylpiperazin-1-yl)ethoxy]phenyl}-6-(4-fluorophenyl)thieno[2,3-d]pyrimidin-4-yl]oxy}-3-(2-{[2-(2-methoxyphenyl)pyrimidin-4-yl]methoxy}phenyl)propanoic acid] |  | 95.6% |  | 99.0% |  | 13% |  | 6% |  |  | 29 nM | 64 nM | stable for three weeks at 4 °C | 305 nM | 7.92 nM | > 2000 nM | 120 nM | 47 nM | 63 nM
